Test in all cases: biochemical
For one experiment, the target named is T1, FimHtrJ96 (Escherichia coli, UniProt P08191).
T1 construct: coding for the lectin domain of FimH (residues 1-158) with a C-terminal 6-histidine tag; made in house; host or cells: E. coli HB101 (lacking the fim operon), periplasmic extract, plasmid pPKL241
It is filed as binding, uropathogenic E. coli strain J96. The conditions noted are these: for Kd: Table 3, [3H]-mannose displacement assay (mannose measured directly), read-out: KD J96; for ΔG° J96: Table 3, calculated from KD. The protocol:
To measure the dissociation constant for FimH:alkyl or aryl-mannoside binding, two different binding assays were developed. The first binding assay uses [^3H]-mannose. The amount of radioactively labeled mannose bound to FimHtrJ96 was measured at six different concentrations of [^3H]-mannose, and a hyperbolic curve fitted to the resulting data (FIG. 1A). FimHtrJ96 corresponds to the carbohydrate (mannose) binding domain of FimH from the uropathogenic E. coli strain J96. The dissociation equilibrium constant was determined from this graph at the concentration of mannose […], which corresponds to occupation of half of the binding sites.
Surface Plasmon Resonance measurements were performed on a Biacore3000™. In a first experiment, the kinetic constants and maximal binding were determined for the FimH-antibody interaction. Next, a fixed concentration of FimH (close to the KD of the FimH-antibody interaction) in combination with varying concentrations of carbohydrate, were used to determine the dissociation equilibrium constant of the FimH-saccharide interaction in a competition experiment. Every measurement was repeated at least twice, including testing the variation between different protein and saccharide batches.
To eliminate the possibility of different binding strength for full length FimH and FimHtrJ96, the binding of alpha-D-mannose to FimC:FimH complex was also measured. […] The inhibition of [^3H]-mannose binding was used in a displacement assay to determine the dissociation constant for a synthetic butyl mannoside by measuring the amount of [^3H]-mannose bound to the protein in the presence of increasing amounts of the inhibitor (FIG. 1B). […] To investigate the effect of sequential addition of methyl groups to the O1 oxygen of D-mannose, a series of alkyl mannosides were synthesized and the dissociation constants determined using the [^3H]-mannose displacement assay and by surface plasmon resonance (Table 1).
Surface Plasmon Resonance measurements were performed on a Biacore3000™. The Fab fragments of a monoclonal antibody against FimH were covalently immobilised via lysines at 1000 Resonance Units (1000 pg ligand/mm^2) in flowcell Fc2 on a CM5 biasensor chip (BIAapplications Handbook, Biacore AB, Uppsala, Sweden). Immobilisation buffer was 100 mM NaAc pH 5.0 with 100 mM NaCl. The reference flowcell Fc1 was left blank.
Binding of FimH to the immobilized antibody was measured with a Biacore 3000 instrument in running buffer (phosphate buffered saline with 0.005% surfactant P20 and 3 mM EDTA), on both flowcells Fc1 and Fc2 simultaneously, at a flow rate of 30 μl/min and at 25° C. Complete dissociation of FimH was done with running buffer before starting a new binding cycle. For all measurements, the association time was 3 minutes, the dissociation time was 30 min. All binding cycles were performed in duplicate, including a zero concentration cycle of FimH (injection of running buffer).
In a first experiment, the kinetic constants, ka and kd, and the maximal binding Rmax, were determined for the FimH-antibody interaction (FimH concentrations (nM): 2000, 1000, 500, 250, 125, 62.5, 31.25, 15.625, 7.818, 3.911, 1.957, 0). All analyses were performed with the BIAeval software. A Langmuir binding isotherm with a 1:1 stoichiometry was fitted to the data, from which the kinetic constants and maximal binding were obtained.
In the next experiment, samples containing a fixed concentration of FimH (close to the KD of the FimH-antibody interaction) in combination with varying concentrations of saccharide, were used to determine the dissociation constant of the FimH-saccharide interaction in a competition experiment. First, ten-fold dilutions of the saccharide solution were used to determine the concentration range for binding of the saccharide to FimH.

A further experiment addresses T2, FimHtrCl#4 (Escherichia coli, UniProt P08191, G94E/N91S/S99N/V48A).
T2 construct: coding for the lectin domain of FimH (residues 1-158) with a C-terminal 6-histidine tag; made in house; host or cells: E. coli HB101 (lacking the fim operon), periplasmic extract, plasmid pMAS146
It counts as binding, E. coli UPEC (Cl#4) strain. The conditions noted are these: for Kd: Table 3, [3H]-mannose displacement assay (mannose measured directly), read-out: KD CI#4; for ΔG° CI#4: Table 3, calculated from KD. The protocol:
(§1) To investigate if these variations reflect differences in sugar binding at the molecular level, the dissociation constants of a series of mannosides for the FimH lectin domain from a fecal (F18) and from a UPEC (Cl#4) strain were determined. […] For comparison, binding to FimHtrJ96 was also investigated. Both F18 and Cl#4 FimH lectin domains were cloned, expressed, and purified in the same way as FimHtrJ96 (Schembri et al., 2000). These two lectin domains differ from the lectin domain of FimHJ96 by substitutions Val27Ala, Asn70Ser and Ser78Asn. In addition, FimHCl#4 differs from the other two variants by a Gly73Glu substitution. […] Five different tri-mannosides corresponding to high-mannose substructures were synthesized, and their binding to FimHtrJ96, FimHtrF18 and FimHtrCl#4 measured using our [^3H]-mannose displacement assay (Table 3). Alpha-D-mannose binding was first directly measured for each of the FimH variants.
(§2) [^3H]alpha-D-mannose was obtained from Amersham. […] Syntheses of tri-mannosides was as reported earlier by Oscarson and co-workers (1993). Weighed amounts of tri-mannosides were dissolved in double distilled water to give stock solutions of 0.87 M man-(1,2)-man-(1,2)-man, 0.25 M man-(1,2)-man-(1,3)-man, 0.27 M man-(1,2)-man-(1,6)-man, 0.30 M man-(1,3)-man-(1,6)-man, 0.13 M man-(1,6)-man-(1,6)-man. Similarly, alkyl mannosides were dissolved in double distilled water to give stock solutions of 100 mM methyl mannoside, 59.8 mM ethyl mannoside, 45.9 mM propyl mannoside, 51.9 mM butyl mannoside, 17.3 mM pentyl mannoside, 20.8 mM hexyl mannoside, 15.3 mM heptyl mannoside, 15.2 mM octyl mannoside. pNPalphaMan and MeUmbalphaMan (6 mg each) were dissolved in 20 μl DMSO and diluted to 20 mM using double distilled water. Binding experiments were performed using six different concentrations of [^3H]-alpha-D-mannose (final concentrations 43.5 μM, 29.0 μM, 19.3 μM, 12.9 μM, 8.6 μM, 5.7 μM). FimHtrJ96 obtained by growing bacteria in minimal medium was used in all binding experiments. 180 μl protein at a concentration of about 500 nM was mixed with 20 μl of the radioactive ligand, and incubated at 37° C. for 20 min. To separate free ligand from bound, the mixture was rapidly filtrated through a Protran BA 85 Cellulose-nitrate filter (Schleicher & Schuell, Dassel, Germany), and washed once with 1 ml of ice-cold 1× PBS (phosphate buffered saline). Filter-bound radioactivity was measured by scintillation spectrometry within 24 hours. The displacement experiments were performed using six different concentrations (final concentrations in the range 0.0˜43.5 μM) of the inhibitor, in the presence of 43.5 μM [^3H]-alpha-D-mannose. 20 μl radioactive ligand, 20 μl inhibitor at decreasing concentrations, and 160 μl protein (500 nM) were mixed, and the experiments performed as above. All experiments were performed in duplicates. For determination of KD for α-D-mannose, a hyperbolic curve (y=P1x/(P2+x), where P2=KD) was fitted to the data. For the displacement experiments, the curve y=P1/(P2+x), where P2 is the concentration of the inhibitor displacing 50% of the labelled ligand, [I]0.5 was used instead. To calculate the inhibitor dissociation constant (KI) the Cheng & Prusoff equation (KI=[I]0.5/([L]/KL+1); KL is the constant of dissociation for the ligand) (Cheng and Prusoff, 1973), was used when both the concentration of the radioactive ligand (L) and the displacing agent (I) are in excess over the protein (LT>>PT;IT>>PT, T indicates total concentration). […] A plot of IT/((1−Y)*(LT/KL)−Y) against 1/Y gives a straight line with a slope of KI.

A further experiment concerns the target T3, FimHtrF18 (Escherichia coli, UniProt P08191, N91S/S99N/V48A).
T3 construct: coding for the lectin domain of FimH (residues 1-158) with a C-terminal 6-histidine tag; made in house; host or cells: E. coli HB101 (lacking the fim operon), periplasmic extract, plasmid pPKL316
It counts as binding, E. coli fecal (F18) strain. The conditions noted are these: for Kd: Table 3, [3H]-mannose displacement assay (mannose measured directly), read-out: KD F18; for ΔG° F18: Table 3, calculated from KD. The protocol:
as §1, §2

T1 sequence (P08191 22-179): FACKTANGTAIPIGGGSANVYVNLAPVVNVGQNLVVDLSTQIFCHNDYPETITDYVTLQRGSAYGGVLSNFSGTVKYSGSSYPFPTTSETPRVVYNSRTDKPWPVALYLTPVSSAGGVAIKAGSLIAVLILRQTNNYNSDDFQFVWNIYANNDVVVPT
T2 sequence (P08191 22-179 V48A/N91S/G94E/S99N): as the sequence (P08191 22-179) above, with V27A, N70S, G73E, S78N counted along it
T3 sequence (P08191 22-179 V48A/N91S/S99N): as the sequence (P08191 22-179) above, with V27A, N70S, S78N counted along it

In general, Kd refers to the constant that tells how readily two partners part at equilibrium. Regarding `OC[C@H]1O[C@H](O[C@@H]2[C@@H](OC[C@H]3OC(O)[C@@H](O)[C@@H](O)[C@@H]3O)O[C@H](CO)[C@@H](O)[C@@H]2O)[C@@H](O)[C@@H](O)[C@@H]1O` (stereo partly drawn) [man-(1,2)-man-(1,6)-man], on FimHtrJ96, the Kd worked out at 0.83 µM and the “ΔG° J96” value was -8.6 kcal/mol. For the same compound, on FimHtrCl#4, the Kd is 2.2 µM and the “ΔG° CI#4” value was -8.0 kcal/mol. Also, at FimHtrF18, the Kd is 1.8 µM and the “ΔG° F18” value is -8.1 kcal/mol.

In the case of `OC[C@H]1O[C@H](O[C@@H]2[C@H](O)[C@@H](OC[C@H]3OC(O)[C@@H](O)[C@@H](O)[C@@H]3O)O[C@H](CO)[C@H]2O)[C@@H](O)[C@@H](O)[C@@H]1O` (stereo partly drawn) [man-(1,3)-man-(1,6)-man], on FimHtrJ96, the Kd is 0.485 µM and the “ΔG° J96” value is -8.6 kcal/mol. Further, on FimHtrCl#4, the Kd came to 1.03 µM and the “ΔG° CI#4” value is -8.5 kcal/mol. At FimHtrF18, the Kd amounted to 0.73 µM and the “ΔG° F18” value is -8.7 kcal/mol.

For the compound `OC[C@H]1O[C@H](OC[C@H]2O[C@H](OC[C@H]3OC(O)[C@@H](O)[C@@H](O)[C@@H]3O)[C@@H](O)[C@@H](O)[C@@H]2O)[C@@H](O)[C@@H](O)[C@@H]1O` (stereo partly drawn) [man-(1,6)-man-(1,6)-man], at FimHtrJ96, the Kd turned out to be 1.4 µM and the “ΔG° J96” value was -8.3 kcal/mol. In addition, at FimHtrCl#4, the Kd came out at 7.5 µM and the “ΔG° CI#4” value was -7.3 kcal/mol. At FimHtrF18, the Kd came to 5.9 µM and the “ΔG° F18” value is -7.4 kcal/mol.

These data come from patent US20080171706A1, “Anti-Adhesive Compounds to Prevent and Treat Bacterial Infections” (priority 2004, published 2008).
